Results from patent US11161829B1, “Dihydrofuran chalcone compound and preparation method thereof” (SOUTH CHINA BOTANICAL GARDEN, CHINESE ACADEMY OF SCIENCES, priority 2018, dated 2021).

Columns and labels:
[1] = DPPH radical scavenging assay; type: biochemical; details: 0.2 mM DPPH in ethanol, 30 minutes in dark at room temperature, absorbance at 517 nm; read-out: IC50 value against DPPH radicals
Protocol: DPPH is a stable free radical. When a free radical scavenger is present, light absorption of DPPH will be reduced when the single electron is scavenged, which allows to evaluate free radical scavenging ability of the substance and accordingly determine antioxidant ability thereof. The DPPH radical scavenging ability of the dihydrofuran chalcone was measured through the DPPH radical scavenging assay, so as to evaluate the antioxidant ability of the compound. The assay comprised the following steps: 1,1-Diphenyl-2-picrylhydrazyl (DPPH) was dissolved in absolute ethanol to obtain a solution with a concentration of 0.2 mM. The dihydrofuran chalcone was dissolved in absolute ethanol. 80 μL of the ethanol solution of dihydrofuran chalcone and 160 μL of the 0.2 mM DPPH ethanol solution were mixed and the mixture was placed in dark at room temperature for 30 minutes. Then, light absorbance at 517 nm was measured using a microplate reader (SpectraMax 190, Molecular Devices, USA), and Vc was employed as a positive control.

[2] = Solubility in methanol (structure identification); type: physicochemical

IC50 [1] | solubility in methanol [2] | SMILES
100 µM | – | O=C1O[C@H]([C@@H](O)CO)C(O)=C1O [Vc, vitamin C]
– | easily soluble | CC(C)(O)C1Cc2c(O)ccc(C(=O)/C=C/c3ccc(O)cc3O)c2O1 (centres unmarked) [compound 1, dihydrofuran chalcone]
